The results in this text go back to patent US7879863B2, “Aniline derivatives” (Ajinomoto Co., Inc., priority 2004, dated 2011).

Counter-ions that a name gives are not always drawn. Marks after values point to notes of the source that are not given here.

One assay deals with T1, human activated tissue kallikrein (Homo sapiens, UniProt P06870).
T1 construct: 6xHis (C); made in house; host or cells: baculovirus / Sf21 insect cells
T1 sequence (P06870 25-262): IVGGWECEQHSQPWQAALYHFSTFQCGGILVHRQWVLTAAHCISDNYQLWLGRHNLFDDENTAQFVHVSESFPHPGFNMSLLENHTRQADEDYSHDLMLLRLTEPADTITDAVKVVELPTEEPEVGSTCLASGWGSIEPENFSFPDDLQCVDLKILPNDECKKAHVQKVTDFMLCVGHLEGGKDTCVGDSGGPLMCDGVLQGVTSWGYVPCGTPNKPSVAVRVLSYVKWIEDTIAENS
Description: Measurement of tissue kallikrein inhibitory activity. As to conditions: activated tissue kallikrein activity (initial rate) inhibited by 50%; substrate D-valyl-L-leucyl-L-arginyl-p-nitroanilide; 37° C. In kind it is biochemical. The procedure: Measurement of tissue kallikrein inhibitory activity
Expression and purification of human activated tissue kallikrein was performed according to the method of Angermann (A. Angermann et al., Eur. J. Biochem., 206, 225-233 (1992)). That is, a gene was prepared by adding 6 residues of histidine to the C-terminal side of human pancreas kallikrein gene (D. Fukuchima et al, Biochemistry, 24, 8037-8043 (1985)), and tissue prokallikrein was expressed by a system using a baculovirus-insect cell (Sf21). Purified human tissue kallikrein was obtained from the culture supernatant by purification using a nickel chelate column (Ni-NTA, QIAGEN K. K.), digestion with TPCK trypsin and further nickel chelate column. To a solution (100 μL) of the human activated tissue kallikrein adjusted to 0.0625 μg/mL with an assay buffer (100 mM tris-hydrochloride buffer (pH 8.4) containing 0.2M NaCl, 0.02% Tween 20, and 0.1% PEG 6000) was added an assay buffer (containing 2% DMSO) solution (50 μL) of the test compound adjusted to the objective concentration, and the mixture was incubated at 37° C. for 10 minutes (min=minutes). Then, a 4 mM solution (50 μL) of D-valyl-L-leucyl-L-arginyl-p-nitroanilide hydrochloride (BACHEM AG) adjusted with the assay buffer was added, the absorbance was measured and the reaction rate was determined. As a control, a DMSO solution (50 μL) was added instead of the solution of the test compound. Absorbance was measured at a wavelength of 405 nm at 60 second intervals for 90 min using a Benchmark Plus Microplate Reader (BIO RAD). The negative logarithm value (abbreviated as pIC50) of the test compound concentration when the activated tissue kallikrein activity (initial rate) was inhibited by 50% without addition of the test compound was used as an index of the activated tissue kallikrein inhibitory activity.
As usually defined, the IC50 is the midpoint of a concentration-inhibition curve. `CC(C)[C@H](CC(=O)NCCc1ccccn1)Nc1ccc(C(F)(F)F)cc1` [Compound C-43]: it took 91.2 nM to reach half-maximal inhibition (IC50).
`O=C(Cc1c[nH]c2ccccc12)NC[C@H]1CCCN1c1ccc(C(F)(F)F)cc1` [Compound A-41] had a half-maximal inhibitory concentration (IC50) of 209 nM.
`CC(C)[C@H](CNC(=O)C1(c2ccccc2)CC1)Nc1ccc(C(F)(F)F)cc1` [Compound A-16] gave a 50% inhibitory concentration (IC50) of 263 nM.
Take `O=C(Cc1ccccc1)NC[C@@H]1CCCN1c1ccc(C(F)(F)F)cc1` [Compound A-40]: the IC50 was 245 nM. The IC50 values of the last two molecules are within 1.5-fold of each other.
`O=C(N[C@H]1CCN(c2ccc(C(F)(F)F)cc2)C1)C1CCN(c2ccncc2)CC1` [Compound B-2] gave a concentration for half-maximal inhibition (IC50) of 204 nM. This IC50 and that of the molecule before are within 1.5-fold of each other.
As to `CC(C)[C@H](CNC(=O)Cc1c[nH]c2ccccc12)Nc1ccc(C(F)(F)F)cc1` [Compound A-4], the IC50 was 29.5 nM.
In the case of `CCNc1ccc(C(F)(F)F)cc1CO` [Compound E-2], the IC50 is 112 nM. Compared with the last molecule, the IC50 is about 3.8-fold higher.
Still for that read-out and setting: in the case of `CCCCN1CCC(O)c2cc(C(F)(F)F)ccc21` (stereo not drawn) [Compound E-4] it was 257 nM.
`CCCN1CCC(O)c2cc(C(F)(F)F)ccc21` (stereo not drawn) [Compound E-3, 1-propyl-6-(trifluoromethyl)-1,2,3,4-tetrahydroquinolin-4-ol]: the midpoint of inhibition, the IC50, lay at 245 nM.
The molecule `CC(C)[C@H](CNC(=O)Cc1ccccc1)Nc1ccc(C(F)(F)F)cc1CO` [Compound A-55, N-((2R)-2-{[2-(hydroxymethyl)-4-(trifluoromethyl)phenyl]amino}-3-methylbutyl)-2-phenylacetamide] showed an IC50 of 20 nM. This IC50 is about 12-fold lower than that of the molecule before.
In turn, `CC(C)[C@H](CC(=O)NCc1ccccc1)Nc1ccc(C(F)(F)F)cc1` [Compound C-40, (3S)-N-benzyl-4-methyl-3-{[4-(trifluoromethyl)phenyl]amino}pentanamide] gave an IC50 of 64.6 nM. Against the preceding molecule, the IC50 is about 3.2-fold higher.
Turning to `CC(C)[C@H](CNC(=O)Cc1cccnc1)Nc1ccc(C(F)(F)F)cc1` [Compound A-7], the half-maximal inhibitory concentration (IC50) is 85.1 nM.
In the case of `CC(C)[C@H](CCNC(=O)Cc1cccs1)Nc1ccc(C(F)(F)F)cc1` [Compound A-50], the IC50 is 107 nM.
The same measure, in the same setting: in the case of `CC(C)[C@H](CC(=O)NCCc1ccccc1)Nc1ccc(C(F)(F)F)cc1` [Compound C-42] it was 129 nM; in that of `CC(C)[C@H](CNC(=O)[C@@H](N)CO)Nc1ccc(C(F)(F)F)cc1` [Compound A-18], 309 nM; in that of `CC(C)[C@H](CNC(=O)CCc1c[nH]c2ccccc12)Nc1ccc(C(F)(F)F)cc1` [Compound A-5], 50.1 nM.
`CC(C)[C@H](CCNC(=O)C1CCN(C(C)C)CC1)Nc1ccc(C(F)(F)F)cc1` [Compound A-52] gave an IC50 of 151 nM. Compared with the last molecule, the IC50 is about 3-fold higher.
Molecule `CC(C)[C@H](CNC(=O)CCN)Nc1ccc(C(F)(F)F)cc1` [Compound A-3] gave an IC50 of 25.7 nM.
In the case of `CC(C)[C@H](CNC(=O)[C@@H](N)Cc1c[nH]c2ccccc12)Nc1ccc(C(F)(F)F)cc1N` [Compound A-57], half-maximal inhibition (IC50) was put at 36.3 nM.
Molecule `CC(C)[C@H](CNC(=O)[C@H](N)c1ccccc1)Nc1ccc(C(F)(F)F)cc1` [Compound A-9] gave an IC50 of 102 nM. Compared with the last molecule, the IC50 is about 2.8-fold higher.
The molecule `CC(C)[C@H](CNC(=O)Cc1ccccc1)Nc1ccc(C(F)(F)F)cc1` [Compound A-1, N-((2R)-3-methyl-2-{[4-(trifluoromethyl)phenyl]amino}butyl)-2-phenylacetamide trifluoroacetate] showed an IC50 of 21.9 nM.
Turning to `CC(C)[C@H](CC(=O)NCc1ccccn1)Nc1ccc(C(F)(F)F)cc1` [Compound C-41], the half-inhibitory concentration (IC50) was 302 nM.
Take `CC(C)[C@H](CNC(=O)[C@H](N)Cc1c[nH]c2ccccc12)Nc1ccc(C(F)(F)F)cc1N` [Compound A-60]: half-maximal inhibition (IC50) required 135 nM.
With `CC(C)[C@H](CNC(=O)c1cccc(N(C)C)c1)Nc1ccc(C(F)(F)F)cc1` [Compound A-10], the concentration for half-maximal inhibition (IC50) was 145 nM.
`CC(C)[C@H](CNC(=O)[C@@H](C)N)Nc1ccc(C(F)(F)F)cc1` [Compound A-17]: half-maximal inhibition (IC50) required 295 nM.
The molecule `CC(C)[C@H](CNC(=O)C1CCN(c2ccncc2)CC1)Nc1ccc(C(F)(F)F)cc1` [Compound A-14] had a half-inhibitory concentration (IC50) of 182 nM.
For `CC(C)[C@H](CCNC(=O)Cc1c[nH]c2ccccc12)Nc1ccc(C(F)(F)F)cc1` [Compound A-51], the IC50 was 129 nM. This IC50 and that of the molecule before are within 1.5-fold of each other.
For `CC(C(=O)NC[C@H](Nc1ccc(C(F)(F)F)cc1)C(C)C)c1ccc(-c2ccccc2)c(F)c1` (stereo partly drawn) [Compound A-6], the half-maximal inhibitory concentration (IC50) was 57.5 nM.
In turn, `CC(C)[C@H](CNC(=O)C(=O)c1c[nH]c2ccccc12)Nc1ccc(C(F)(F)F)cc1` [Compound A-12] had a concentration for half-maximal inhibition (IC50) of 162 nM.
The same measure, in the same setting: the value for `CC(C)[C@H](CNC(=O)/C=C/c1ccncc1)Nc1ccc(C(F)(F)F)cc1` [Compound A-13] was 178 nM; that for `CC(C)[C@H](CNC(=O)Cc1ccccn1)Nc1ccc(C(F)(F)F)cc1N` [Compound A-59] was 83.2 nM; that for `CC(C)[C@H](CCNC(=O)C1CCN(c2ccncc2)CC1)Nc1ccc(C(F)(F)F)cc1` [Compound A-48] was 46.8 nM.
In the case of `CC(C)[C@H](CNC(=O)[C@@H](O)c1ccccc1)Nc1ccc(C(F)(F)F)cc1` [Compound A-11], the IC50 was 158 nM.
Regarding `O=C(Cc1ccccc1)NC[C@H]1CCCN1c1ccc(C(F)(F)F)cc1` [Compound A-39], the IC50 is 41.7 nM.
Still for that read-out and setting: in the case of `CC(C)[C@H](CCNC(=O)c1ccc2ncccc2c1)Nc1ccc(C(F)(F)F)cc1` [Compound A-49] it was 46.8 nM; in that of `CC(C)[C@H](CNC(=O)[C@@H](N)C(C)C)Nc1ccc(C(F)(F)F)cc1` [Compound A-15], 182 nM; in that of `CC(C)[C@H](CNC(=O)Cc1ccccc1)Nc1ccc(C(F)(F)F)cc1N` [Compound A-56, N-((2R)-2-{[2-amino-4-(trifluoromethyl)phenyl]amino}-3-methylbutyl)-2-phenylacetamide trifluoroacetate], 50.1 nM.
As for `CC(C)[C@H](CCNC(=O)c1ccccc1)Nc1ccc(C(F)(F)F)cc1` [Compound A-47, N-((3S))-4-methyl-3-{[4-(trifluoromethyl)phenyl]amino}pentyl)benzamide trifluoroacetate], it took 209 nM to reach half-maximal inhibition (IC50).
Molecule `CC(C)[C@H](CNC(=O)Cc1c[nH]c2ccccc12)Nc1ccc(C(F)(F)F)cc1N` [Compound A-58] showed an IC50 of 49 nM. This IC50 lies about 4.3-fold lower than the previous one.

The next assay relates to acetic acid writhing model. Description: Efficacy evaluation in acetic acid writhing model. In kind it is in vivo, male ICR mice. As to conditions: 10 mg/kg oral, mice, writhing number 5 to 20 min after 0.9% acetic acid i.p.; mean ± standard error. The procedure: Efficacy evaluation in acetic acid writhing model
The acetic acid writhing model was subjected to evaluation according to the method of European Journal of Pharmacology, 352, 47-52 (1998). To be specific, a solution of the test compound adjusted to the objective concentration with a 0.5 (w/v) % tragacanth gum solution was orally administered to male ICR mice (CHARLES RIVER LABORATORIES JAPAN, INC.) at 5 mL/kg, and a 0.9% acetic acid solution adjusted with a physiological saline was intraperitoneally administered 60 min later at 5 mL/kg. The number of writhing for 15 min from 5 min to 20 min after administration of a 0.9% acetic acid solution was counted and taken as the writhing number of the test compound. A mouse, to which a 0.5 (w/v) % tragacanth gum (TG) solution was orally administered at 5 ml/kg instead of the test compound, was used as a control. The suppression rate (%) was calculated by subtracting the relative value of each mouse from the relative value when the average value of the control group is 100%. As a Reference Example, the value obtained by oral administration of a positive control drug, indomethacin, instead of the test compound is shown. […] For testing the significant difference, Dunnett's t-test was used, and statistic significance as shown by P<0.05 and P<0.01 relative to the TG control group is shown in the Table with * and **, respectively.
On the technique in general: In writhing tests, fewer writhes than in controls are read as antinociception.
Consider `COc1ccc2c(c1)c(CC(=O)O)c(C)n2C(=O)c1ccc(Cl)cc1` [Indomethacin, indomethacin, reference compound], for which the “suppression rate (%)” value was 64.1 ± 10.8** %.

In another assay the test system is DSS-induced enteritis model. Description: Efficacy evaluation in DSS-induced enteritis model. The class given is in vivo, female CBA mice. As to conditions: 200 mg/kg oral, mice, 5% DSS; relative to non-treatment group = 100%; mean ± standard error. An excerpt: Efficacy evaluation in DSS-induced enteritis model
The dextran sodium sulfate (DSS)-induced enteritis model was subjected to evaluation by a partly-modified methods of Gastroenterology, 98, 694-702 (1990) and Cytokine, 11, 890-896 (1998). A 5 (w/v) % DSS (manufactured by Sigma, MW 5,000) solution was freely taken by female CBA mice (CHARLES RIVER LABORATORIES JAPAN, INC.) for a given period to induce enteritis. A solution of the test compound adjusted to the objective concentration with a 0.5 (w/v) % tragacanth gum (TG) solution was orally administered at 5 mL/kg. Upon autopsy, the length, weight and the like of the large intestine were evaluated and used as an index of the onset of inflammatory enteritis. As a control, a mouse, to which a 0.5 (w/v) % TG solution was orally administered at 5 mL/kg instead of the test compound, was used. The length and weight of the large intestine are expressed as the relative value when the average value of the non-treatment group is 100%. As a Reference Example, the values obtained by oral administration of a positive control drug, salazosulfapyridine, instead of the test compound are shown. […] For testing the significant difference, Dunnett's t-test was used, and statistic significance as shown by P<0.05 and P<0.01 relative to the TG control group is shown in the Table with * and **, respectively.
`O=C(O)c1cc(/N=N/c2ccc(S(=O)(=O)Nc3ccccn3)cc2)ccc1O` [salazosulfapyridine, reference compound]: the “large intestine length (%)” value is recorded as 78.1 ± 1.5* % and the “large intestine weight (%)” value was 123.0 ± 1.9** %.
